Measurements reported in US20240024273A1, “TOPICAL ADMINISTRATION OF 2-(DIETHYLAMINO)ETHYL 2-(4-ISOBUTYLPHENYL)PROPRIONATE FOR TREATMENT OF DISEASES” (TECHFIELDS PHARMA CO., LTD., priority 2020, published 2024).

Test system: Mild to Moderate Osteoarthritis of the Knee
Assay: Phase 2 study: WOMAC difficulty performing daily activities subscale score
Format: in vivo, human
Conditions: for Change of WOMAC Difficulty performing daily activities score from baseline (±SEM) / Percentage of improvement from baseline, WOMAC Difficulty performing daily activities score: all patients taken as active; for WOMAC Difficulty Performing Daily Activities Subscale Score, Avg.: Avg. of all patients; for WOMAC Difficulty Performing Daily Activities Subscale Score, Avg. / WOMAC Difficulty Performing Daily Activities Subscale Score: blinded; for WOMAC Difficulty Performing Daily Activities Subscale Score: individual patient
Text: This is a Phase 2, multicenter, randomized, double blind (within dose), placebo controlled, parallel group, proof of concept, and dose range finding study to evaluate the efficacy, safety, and PK of 2-(diethylamino)ethyl 2-(4-isobutylphenyl)propionate hydrochloride spray in adult subjects with clinically symptomatic mild to moderate OA of the knee. For subjects with bilateral knee pain, both knees will be treated, but the most symptomatic knee (i.e., the most painful knee as measured by the Western Ontario and McMaster University Osteoarthritis Index [WOMAC® 3.1] pain subscale score at Screening) will be designated as the target knee for efficacy analyses. For subjects with unilateral knee pain, only the symptomatic (target) knee will be treated.
After a Screening Period of up to 3 weeks and radiographic evaluation of the target knee joint space, a subject will be randomly assigned to 1 of 3 treatment groups in a 1:1:1 ratio with a 2:1 ratio of active:placebo within each treatment group (ie, 2 subjects to active treatment and 1 subject to placebo): • Group A: 8.75 mg 2-(diethylamino)ethyl 2-(4-isobutylphenyl)propionate/knee (2 sprays/knee, one spray to the medial surface and one spray to the lateral surface of the knee), twice daily (BID, approximately every 12 hours; n=50) or placebo (2 sprays/knee), BID (approximately every 12 hours; n=25) for a total of 4 sprays per knee per day; • Group B: 17.5 mg 2-(diethylamino)ethyl 2-(4-isobutylphenyl)propionate/knee (4 sprays/knee, one spray to the medial surface and one spray to the lateral surface of the knee, and one spray to front and one spray to the back of the knee), BID (approximately every 12 hours; n=50) or placebo (4 sprays/knee), BID (approximately every 12 hours; n=25) for a total of 8 sprays per knee per day; • Group C: 35 mg 2-(diethylamino)ethyl 2-(4-isobutylphenyl)propionate/knee (8 sprays/knee, each spray is to be applied to a different non-overlapping area around the knee, and the areas are to be uniformly distributed around the knee), BID (approximately every 12 hours; n=50) or placebo (8 sprays/knee), BID (approximately every 12 hours; n=25) for a total of 16 sprays per knee per day.
The VAS version of the WOMAC will be used for the Primary and Secondary Efficacy Endpoints. Efficacy endpoints will be assessed at Screening and Baseline (Day 1) and at the Week 2, Week 4, Week 8, and Week 12/EOS visits.
3.9.2. Secondary Efficacy Endpoints: • 1. Change from Baseline in the WOMAC (VAS) pain subscale score for the target knee at 2, 4, and 8 weeks of treatment; • 2. Change from Baseline in the WOMAC (VAS) stiffness subscale scores for the target knee and WOMAC (VAS) functional ability subscale scores at 2, 4, 8, and 12 weeks of treatment; • 3. Change from Baseline in the overall WOMAC (VAS) score at 2, 4, 8, and 12 weeks of treatment.
The Secondary Efficacy Endpoints, change from Baseline in the WOMAC subscale scores for pain, stiffness, and functional ability, and overall WOMAC score at 2, 4, 8, and 12 weeks of treatment, will be analyzed using the same methods as for the Primary Efficacy Endpoint.
To determine this, we assumed that all patients received 2-(diethylamino)ethyl 2-(4-isobutylphenyl)propionate, active drug treatment (i.e. all patients who received 2-(diethylamino)ethyl 2-(4-isobutylphenyl)propionate or placebo treatment for 12 weeks or mixed up treatment during the 12-week treatment, as 2-(diethylamino)ethyl 2-(4-isobutylphenyl)propionate-treated). Based on this assumption, that is, to treat this trial as an open-label study and that all patients received active treatment, we conducted efficacy analysis using top-line efficacy datasets prepared by CRO and the re-analysis results are presented in the following tables (Tables 29-47). […] (William G. Bensen, Justus J. Fiechtner, James 1. McMillen, et. al. Treatment of Osteoarthritis with Celecoxib. Mayo Clin Proc, November 1999. Vol 74, 1095-1105.)

[1] = 35 mg/knee (BID), Week 8 (day 56)
[2] = 35 mg/knee (BID), Week 12 (day 84)
[3] = Middle Dose (4 spray/knee, 17.5 mg/knee) Cohort, Day 1
[4] = Middle Dose (4 spray/knee, 17.5 mg/knee) Cohort, Week 4

CCN(CC)CCOC(=O)C(C)c1ccc(CC(C)C)cc1 (stereo not shown) [2-(diethylamino)ethyl 2-(4-isobutylphenyl)propionate]
Percentage of improvement from baseline, WOMAC Difficulty performing daily activities score, adjusted by […] of the Testing Drug Amount [1]: −55.1%
Change of WOMAC Difficulty performing daily activities score from baseline (±SEM) [1]: −18.4(±2.6) mm
Percentage of improvement from baseline, WOMAC Difficulty performing daily activities score [1]: −32.1%
Change of WOMAC Difficulty performing daily activities score from baseline (±SEM), adjusted by […] of the Testing Drug Amount [2]: −35.8(±4.8) mm
Percentage of improvement from baseline, WOMAC Difficulty performing daily activities score, adjusted by […] of the Testing Drug Amount [2]: −62.4%
Change of WOMAC Difficulty performing daily activities score from baseline (±SEM) [2]: −20.9(±2.8) mm
Percentage of improvement from baseline, WOMAC Difficulty performing daily activities score [2]: −36.4%
reduction of difficulty performing daily activities WOMAC from baseline to week 12 (5 patients on second batch active drug kits): 65.1-100%
WOMAC Difficulty Performing Daily Activities Subscale Score, Avg. (35 mg/knee (8 spray/knee), Day 1): 57.4
WOMAC Difficulty Performing Daily Activities Subscale Score, Avg. (35 mg/knee (8 spray/knee), Follow-up): 37.0
WOMAC Difficulty Performing Daily Activities Subscale Score, Avg. (35 mg/knee (8 spray/knee), Week 2): 48.0
WOMAC Difficulty Performing Daily Activities Subscale Score, Avg. (35 mg/knee (8 spray/knee), Week 4): 44.0
WOMAC Difficulty Performing Daily Activities Subscale Score, Avg. (35 mg/knee (8 spray/knee), Week 8): 39.0
WOMAC Difficulty Performing Daily Activities Subscale Score, Avg. (35 mg/knee (8 spray/knee), Week 12): 36.5
WOMAC Difficulty Performing Daily Activities Subscale Score, Avg. [3]: 63.4
WOMAC Difficulty Performing Daily Activities Subscale Score, Avg. (Middle Dose (4 spray/knee, 17.5 mg/knee) Cohort, Follow-up): 40.3
WOMAC Difficulty Performing Daily Activities Subscale Score, Avg. (Middle Dose (4 spray/knee, 17.5 mg/knee) Cohort, Week 2): 48.1
WOMAC Difficulty Performing Daily Activities Subscale Score, Avg. [4]: 42.3
WOMAC Difficulty Performing Daily Activities Subscale Score, Avg. (Middle Dose (4 spray/knee, 17.5 mg/knee) Cohort, Week 8): 39.3
WOMAC Difficulty Performing Daily Activities Subscale Score, Avg. (Middle Dose (4 spray/knee, 17.5 mg/knee) Cohort, Week 12): 36.5
WOMAC Difficulty Performing Daily Activities Subscale, WOMAC VAS Score (Patient 1056, second batch active drug kits, Day 1): 39.6 mm
WOMAC Difficulty Performing Daily Activities Subscale, WOMAC VAS Score (Patient 1056, second batch active drug kits, Follow Up): 11.6 mm
WOMAC Difficulty Performing Daily Activities Subscale, WOMAC VAS Score (Patient 1056, second batch active drug kits, Week 2): 27.1 mm
WOMAC Difficulty Performing Daily Activities Subscale, WOMAC VAS Score (Patient 1056, second batch active drug kits, Week 4): 24.4 mm
WOMAC Difficulty Performing Daily Activities Subscale, WOMAC VAS Score (Patient 1056, second batch active drug kits, Week 8): 25.2 mm
WOMAC Difficulty Performing Daily Activities Subscale, WOMAC VAS Score (Patient 1056, second batch active drug kits, Week 12): 18.1 mm
WOMAC Difficulty Performing Daily Activities Subscale, WOMAC VAS Score (Patient 1064, second batch active drug kits, Day 1): 33.6 mm
WOMAC Difficulty Performing Daily Activities Subscale, WOMAC VAS Score (Patient 1064, second batch active drug kits, Follow Up): 0.4 mm
WOMAC Difficulty Performing Daily Activities Subscale, WOMAC VAS Score (Patient 1064, second batch active drug kits, Week 2): 24.4 mm
WOMAC Difficulty Performing Daily Activities Subscale, WOMAC VAS Score (Patient 1064, second batch active drug kits, Week 4): 1.1 mm
WOMAC Difficulty Performing Daily Activities Subscale, WOMAC VAS Score (Patient 1064, second batch active drug kits, Week 8): 0.5 mm
WOMAC Difficulty Performing Daily Activities Subscale, WOMAC VAS Score (Patient 1064, second batch active drug kits, Week 12): 0.6 mm
WOMAC Difficulty Performing Daily Activities Subscale, WOMAC VAS Score (Patient 1535, second batch active drug kits, Day 1): 51.6 mm
WOMAC Difficulty Performing Daily Activities Subscale, WOMAC VAS Score (Patient 1535, second batch active drug kits, Follow Up): 0.2 mm
WOMAC Difficulty Performing Daily Activities Subscale, WOMAC VAS Score (Patient 1535, second batch active drug kits, Week 2): 3.3 mm
WOMAC Difficulty Performing Daily Activities Subscale, WOMAC VAS Score (Patient 1535, second batch active drug kits, Week 4): 2.8 mm
WOMAC Difficulty Performing Daily Activities Subscale, WOMAC VAS Score (Patient 1535, second batch active drug kits, Week 8): 3.5 mm
WOMAC Difficulty Performing Daily Activities Subscale, WOMAC VAS Score (Patient 1535, second batch active drug kits, Week 12): 0.2 mm
WOMAC Difficulty Performing Daily Activities Subscale, WOMAC VAS Score (Patient 1539, second batch active drug kits, Day 1): 73.0 mm
WOMAC Difficulty Performing Daily Activities Subscale, WOMAC VAS Score (Patient 1539, second batch active drug kits, Follow Up): 4.4 mm
WOMAC Difficulty Performing Daily Activities Subscale, WOMAC VAS Score (Patient 1539, second batch active drug kits, Week 2): 47.8 mm
WOMAC Difficulty Performing Daily Activities Subscale, WOMAC VAS Score (Patient 1539, second batch active drug kits, Week 4): 43 mm
WOMAC Difficulty Performing Daily Activities Subscale, WOMAC VAS Score (Patient 1539, second batch active drug kits, Week 8): 5.5 mm
WOMAC Difficulty Performing Daily Activities Subscale, WOMAC VAS Score (Patient 1539, second batch active drug kits, Week 12): 8.4 mm
WOMAC Difficulty Performing Daily Activities Subscale, WOMAC VAS Score (Patient 9032, second batch active drug kits, Day 1): 16.4 mm
WOMAC Difficulty Performing Daily Activities Subscale, WOMAC VAS Score (Patient 9032, second batch active drug kits, Follow Up): 2.8 mm
WOMAC Difficulty Performing Daily Activities Subscale, WOMAC VAS Score (Patient 9032, second batch active drug kits, Week 2): 6.0 mm
WOMAC Difficulty Performing Daily Activities Subscale, WOMAC VAS Score (Patient 9032, second batch active drug kits, Week 4): 7.1 mm
WOMAC Difficulty Performing Daily Activities Subscale, WOMAC VAS Score (Patient 9032, second batch active drug kits, Week 8): 3.4 mm
WOMAC Difficulty Performing Daily Activities Subscale, WOMAC VAS Score (Patient 9032, second batch active drug kits, Week 12): 2.5 mm
WOMAC Difficulty Performing Daily Activities Subscale Score [3]: 64.5
WOMAC Difficulty Performing Daily Activities Subscale Score [4]: 66.8
